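Briefly, cells in 96-well plates were exposed to five compound concentrations for 48 h, and endpoints were estimated by linear interpolation. GI50 is the concentration that inhibits growth by half.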 Active and inactive are the calls of the source. Rule as the data show it: active = GI50 up to about 1.1 µM and inactive = higher.

The record followed here is ChEMBL document CHEMBL1201862, “PubChem BioAssay data set” (2004).

Among the test systems are HT-29; NCI-H226; EKVX; NCI/ADR-RES; NCI-H522; RXF 393; UACC-257; K562; NCI-H23; ACHN; MDA-N; Malme-3M; HL-60; OVCAR-4; CAKI-1; SF-539; OVCAR-3; MDA-MB-231; UACC-62; SF-268.
Experiment in all cases: growth of human tumour cells (NCI), 48 h

`COc1cc2c3c(c1OC)C1(C=CC(=O)C=C1)CC3NCC2` (stereo not drawn): the GI50 in the experiment with HT-29 was > 100 µM (inactive); in the experiment on NCI-H226, > 100 µM (inactive); in the experiment with EKVX it was > 100 µM (inactive); in the experiment with NCI/ADR-RES, > 100 µM (inactive); in the experiment with NCI-H522 it was 71 µM (inactive); in the experiment with RXF 393 it was 89.7 µM (inactive). In addition, the GI50 with UACC-257, in the experiment on K562, in the experiment with NCI-H23, in the experiment with ACHN, in the experiment with MDA-N and with Malme-3M was > 100 µM (inactive) throughout. For the same compound, the GI50 in the experiment on HL-60 is 32.6 µM (inactive); in the experiment on OVCAR-4 it was > 100 µM (inactive); in the experiment on CAKI-1, > 100 µM (inactive); in the experiment on SF-539, > 100 µM (inactive); with OVCAR-3, > 100 µM (inactive); in the experiment on MDA-MB-231 it was > 100 µM (inactive). Further, the GI50 in the experiment on UACC-62 and in the experiment on SF-268 was > 100 µM (inactive) in each case.

`COC(=O)[C@@H]1CS(=O)(=O)C(C(C)C)N1C(C)=O` (stereo partly drawn): the GI50 in the experiment on HT-29, with NCI-H226, in the experiment with EKVX, with NCI/ADR-RES, with NCI-H522 and with RXF 393 was > 100 µM (inactive) each time. The GI50 in the experiment with UACC-257, with K562, in the experiment on NCI-H23, in the experiment with ACHN, in the experiment with MDA-N and in the experiment with Malme-3M was > 100 µM (inactive) each time. For the same compound, the GI50 in the experiment with HL-60 was 7.19 µM (inactive); in the experiment on OVCAR-4, > 100 µM (inactive); in the experiment on CAKI-1 it was > 100 µM (inactive); in the experiment on SF-539 it was > 100 µM (inactive); in the experiment on OVCAR-3, > 100 µM (inactive); in the experiment with MDA-MB-231, > 100 µM (inactive). The GI50 in the experiment on UACC-62 and in the experiment with SF-268 was > 100 µM (inactive) in each case.

Regarding `CC1=C(C#N)C23C(=O)c4ccccc4C(=O)C2=C(O)C=CC3(O)N1` (stereo not drawn), the GI50 is 1.23 µM (inactive) in the experiment with HT-29; 15.7 µM (inactive) in the experiment on NCI-H226; 5.82 µM (inactive) in the experiment with EKVX; 7.83 µM (inactive) with NCI/ADR-RES; 1.48 µM (inactive) with NCI-H522; 3.8 µM (inactive) with RXF 393. The GI50 with UACC-257 is 2.07 µM (inactive); in the experiment with K562 it was 1.15 µM (inactive); in the experiment with NCI-H23, 3.84 µM (inactive); in the experiment with ACHN it was 1.53 µM (inactive); in the experiment on MDA-N it was 1.53 µM (inactive); in the experiment with Malme-3M, 1.78 µM (inactive). Besides, the GI50 in the experiment on HL-60 is 0.313 µM (active); with OVCAR-4, 1.97 µM (inactive); in the experiment on CAKI-1 it was 4.06 µM (inactive); in the experiment with SF-539, 2.86 µM (inactive); in the experiment with OVCAR-3, 0.861 µM (active); with MDA-MB-231, 8.83 µM (inactive). Also, the GI50 with UACC-62 is 2.52 µM (inactive); with SF-268 it was 6.61 µM (inactive).

With `O=C1NC2=NOC(=O)NC2=NO1`, the GI50 with HT-29, in the experiment with NCI-H226, with EKVX, in the experiment on NCI/ADR-RES, with NCI-H522 and in the experiment on RXF 393 was > 200 µM (inactive) throughout. Moreover, the GI50 with UACC-257, with K562, with NCI-H23, in the experiment with ACHN, in the experiment on MDA-N and with Malme-3M was > 200 µM (inactive) in each case. For the same compound, the GI50 with HL-60, in the experiment on OVCAR-4, in the experiment on CAKI-1, in the experiment on SF-539, in the experiment on OVCAR-3 and in the experiment with MDA-MB-231 was > 200 µM (inactive) each time. Further, the GI50 with UACC-62 and with SF-268 was > 200 µM (inactive) throughout.

As for `CO[C@H]1C[C@H](O[C@H]2CC[C@]3(C=O)[C@H]4CC[C@]5(C)[C@@H](C6=CC(=O)OC6)CC[C@]5(O)[C@@H]4CC[C@]3(O)C2)O[C@H](C)[C@H]1O` [CYMARIN], the GI50 in the experiment with HT-29 was 0.233 µM (active); with NCI-H226, 0.54 µM (active); in the experiment on EKVX, 0.175 µM (active); in the experiment with NCI/ADR-RES, 0.257 µM (active); with NCI-H522, < 0.0393 µM (active); with RXF 393 it was 0.0467 µM (active). Besides, the GI50 with UACC-257 was 0.37 µM (active); in the experiment on K562 it was 0.184 µM (active); with NCI-H23 it was 0.157 µM (active); in the experiment on ACHN, 0.0912 µM (active); in the experiment with MDA-N, 0.136 µM (active); in the experiment on Malme-3M, 0.225 µM (active). The GI50 in the experiment with HL-60 is 0.118 µM (active); in the experiment with OVCAR-4 it was 0.107 µM (active); in the experiment with CAKI-1, 0.102 µM (active); in the experiment with SF-539 it was 0.0809 µM (active); with OVCAR-3 it was 0.146 µM (active); with MDA-MB-231, 1.14 µM (inactive). The results for the GI50 with UACC-62 and in the experiment on SF-268 were 0.43 µM (active) and 0.126 µM (active), respectively.

On to `FC(F)(F)c1cccc(-c2nc3ccccc3c3c2[C@@]2(N4CCCC4)CCCC[C@@H]32)c1`, for which the GI50 is 29.1 µM (inactive) in the experiment on HT-29; 51.2 µM (inactive) in the experiment on NCI-H226; 28.7 µM (inactive) with EKVX; > 100 µM (inactive) in the experiment with NCI/ADR-RES; 13.3 µM (inactive) in the experiment with NCI-H522; 38.1 µM (inactive) in the experiment on RXF 393. The GI50 in the experiment on UACC-257 was 44.9 µM (inactive); with K562 it was 30.8 µM (inactive); in the experiment with NCI-H23, 32.4 µM (inactive); in the experiment with MDA-N, 32.2 µM (inactive); with Malme-3M it was 32.9 µM (inactive); in the experiment on HL-60, 25.8 µM (inactive). In addition, the GI50 is 35.3 µM (inactive) in the experiment on OVCAR-4; 50.9 µM (inactive) in the experiment on CAKI-1; 37.1 µM (inactive) in the experiment on SF-539; 38.9 µM (inactive) in the experiment with OVCAR-3; 18.5 µM (inactive) with MDA-MB-231; 23.5 µM (inactive) with UACC-62. For the same compound, in the experiment on SF-268, the GI50 is 33.3 µM (inactive).

`COC(=O)/C(=C\c1cn(C(C)=O)c2ccccc12)P(=O)(OC)OC`: the GI50 was 16.1 µM (inactive) with HT-29; 38.4 µM (inactive) in the experiment with NCI-H226; 17 µM (inactive) in the experiment with EKVX; 23.8 µM (inactive) in the experiment on NCI/ADR-RES; 11.2 µM (inactive) in the experiment on NCI-H522; 16.7 µM (inactive) in the experiment with RXF 393. For the same compound, the GI50 was 25.1 µM (inactive) in the experiment with K562; 14.8 µM (inactive) in the experiment on NCI-H23; 11.8 µM (inactive) in the experiment with ACHN; 15.1 µM (inactive) in the experiment on MDA-N; 16.7 µM (inactive) in the experiment on Malme-3M; 78.5 µM (inactive) with HL-60. Besides, the GI50 with OVCAR-4 is 14.6 µM (inactive); in the experiment on CAKI-1, 12.6 µM (inactive); with SF-539, 16 µM (inactive); with OVCAR-3, 17.1 µM (inactive); in the experiment with MDA-MB-231, 11.7 µM (inactive); in the experiment on UACC-62, 11.5 µM (inactive). Besides, in the experiment on SF-268, the GI50 is 22.4 µM (inactive).
